The test system of one experiment is skin tumors. The experiment can be described thus: Effects of antioxidants on skin tumor promotion (DMBA initiation + TPA promotion), antioxidants applied with TPA. Type of experiment: in vivo, mice (SENCAR). Particulars: 30 weeks. From the text:
In one important aspect of the present invention, the formulation includes at least one antioxidant. The antioxidant is preferably selected from the group consisting of butylated hydroxyanisole, butylated hydroxytoluene and propyl gallate. The inventive formulation may include one, or, more preferably, several of the preferred antioxidants in combination. According to one embodiment, the inventive formulation includes butylated hydroxyanisole (BHA) or butylated hydroxytoluene (BHT), and propyl gallate. BHA, BHT and propyl gallate are all antioxidants used to stabilize cosmetic, pharmaceutical, and food products. It has been reported that these agents protect normal cells against radiation, free radicals, toxic chemicals and chemical carcinogens. […] The SENCAR mouse is a valid testing system for the ability of a compound to inhibit tumor initiation and promotion. A good dose-response relationship exists for 7, 12-dimethylbenzanthracene to initiate skin tumors in these mice and they are sensitive to TPA (12-0-tetradecanoylphorbol-13-acetate) promotion [Slaga(1983) “Multistage Skin Carcinogenesis and Specificity of Inhibitors” in: Modulation and Mediation of Cancer by Vitamins, pp. 10-23.]. Further, the preferred antioxidants of the present invention have been reported to protect against cardiovascular disorders, enhance immune function and increase longevity. The preferred antioxidants of the present invention work synergistically with several vitamins, minerals, amino acids, enzymes, and other antioxidants or free radial scavengers included in the formulation of the present invention as will be described in detail below.

In another experiment the test system is skin cancer. Description: Mouse skin carcinogenesis system. Type of experiment: in vivo. Particulars: given alone.
A further experiment has as its system spontaneous tumors. Description: Effects of antioxidants in the diet on aging and spontaneous tumor formation in mice. Type of experiment: in vivo. The conditions noted are these: 0.5% in normal laboratory chow; 100 SENCAR mice per group. From the text: Table 2 illustrates the effects of certain antioxidant components of the present formulation on all the known spontaneous tumor formations and longevity in mice.

Setting [1] is: 0.5 mg applied simultaneously with TPA 2x/wk, 30 female SENCAR mice.

As for `CC1=C(/C=C/C(C)=C/C=C/C(C)=C/C=C/C=C(C)/C=C/C=C(C)/C=C/C2=C(C)CCCC2(C)C)C(C)(C)CCC1` [B-carotene, Beta carotene], the “Tumor Response (% Inhibition)” value in the experiment on skin tumors (setting [1]) came to 20 % Inhibition. Further, the “inhibitory activity in mouse skin carcinogenesis” value in the experiment with skin cancer was “lack of an inhibitory activity”.
In the case of `COc1ccc(O)c(C(C)(C)C)c1` [BHA, butylated hydroxyanisole], the “Tumor Response (% Inhibition)” value in the experiment on skin tumors (setting [1]) was found to be 35 % Inhibition. In addition, in the experiment on spontaneous tumors, the “Increase in Lifespan (%)” value is 132% and the “Spontaneous Tumor Formation (% of Control)” value is given as 46 % of Control.
With `Cc1cc(C(C)(C)C)c(O)c(C(C)(C)C)c1` [BHT, butylated hydroxytoluene], the “Tumor Response (% Inhibition)” value in the experiment with skin tumors (setting [1]) is reported as 32 % Inhibition. Also, in the experiment on spontaneous tumors, the “Increase in Lifespan (%)” value was determined as 124% and the “Spontaneous Tumor Formation (% of Control)” value is reported as 56 % of Control.
The corresponding values for `CCCOC(=O)c1cc(O)c(O)c(O)c1` [Propyl gallate, propyl gallate] are 40 % Inhibition, 127% and 62 % of Control.
For the compound `[Se]` [Selenium], in the experiment with skin tumors (0.004 mg applied simultaneously with TPA 2x/wk), the “Tumor Response (% Inhibition)” value is recorded as 23 % Inhibition.
Take `O=C1O[C@H]([C@@H](O)CO)C(O)=C1O` [Vitamin C]: in the experiment with skin tumors (setting [1]), the “Tumor Response (% Inhibition)” value is listed as 30 % Inhibition.
Turning to Vitamin E, the “Tumor Response (% Inhibition)” value in the experiment with skin tumors (0.1 mg applied simultaneously with TPA 2x/wk) is listed as 25 % Inhibition.

The values are drawn from patent US6451341B1, “Time release formulation of vitamins, minerals and other beneficial supplements” (priority 1990, dated 2002).
